Experimental data published in ChEMBL document CHEMBL3885861, “Open TG-GATES”.

Species: Rattus norvegicus
Test: Open TG-GATES - Regimen: Single
Assay type: toxicity, organism-based, Sprague-Dawley
Design: regimen Single, gender Male, age 6 weeks
Conditions: in vivo, iv, 20 mg/kg, route intravenous injection, dose level Middle; for APTT / Bas / Eos / Fbg / Hb / Ht / Lym / MCH / MCHC / MCV / Mono / Neu / PT / Plat / RBC / Ret / WBC: tissue Blood; for KIDNEY_L / KIDNEY_R / KIDNEY_TOTAL: tissue Kidney; for LIVER: tissue Liver; for A/G / ALP / ALT / AST / BUN / CRE / Ca / Cl / DBIL / GLC / IP / K / LDH / Na / PL / RALB / TBIL / TC / TG / TP / gamma-GTP: tissue Plasma

Compound `NCCBr` [BROMOETHANAMINE] has a TERMINAL_BW (3 h) of 213.1 g, an APTT (3 h) of 23.3 s and a Bas (3 h) of 0%. For the same compound, the Eos (3 h) was 0.8%, the Fbg (3 h) was 304 mg/dL and the Hb (3 h) was 13.6 g/dL. The Ht (3 h) was 39.3%, the Lym (3 h) was 77.8% and the MCH (3 h) was 21.5 pg. It also gave an MCHC (3 h) of 34.7%, an MCV (3 h) of 61.9 fL and a Mono (3 h) of 2.2%. The Neu (3 h) was 18.8%, the PT (3 h) was 16.2 s and the Plat (3 h) was 141.3 x10_4/uL. For the same compound, the RBC (3 h) was 635 x10_4/ul, the Ret (3 h) was 5.8% and the WBC (3 h) was 60.9 x10_2/uL. For the same compound, the KIDNEY_L (3 h) was 0.9 g, the KIDNEY_R (3 h) was 0.9 g and the KIDNEY_TOTAL (3 h) was 1.9 g. The LIVER (3 h) was 9.4 g, the A/G (3 h) was 1.2 and the ALP (3 h) was 1554.2 IU/L. It also gave an ALT (3 h) of 41.2 IU/L, an AST (3 h) of 67.2 IU/L and a BUN (3 h) of 11.6 mg/dL. It also gave a CRE (3 h) of 0.1 mg/dL, a Ca (3 h) of 10.8 mg/dL and a Cl (3 h) of 105 meq/L. It also gave a DBIL (3 h) of 0 mg/dL, a GLC (3 h) of 189.8 mg/dL and an IP (3 h) of 9.8 mg/dL. For the same compound, the K (3 h) was 3.8 meq/L, the LDH (3 h) was 210 IU/L and the Na (3 h) was 143.2 meq/L. The PL (3 h) was 130.8 mg/dL, the RALB (3 h) was 3.1 g/dL and the TBIL (3 h) was 0.014 mg/dL. It also gave a TC (3 h) of 79.4 mg/dL, a TG (3 h) of 50.2 mg/dL and a TP (3 h) of 5.7 g/dL. The gamma-GTP (3 h) was 1.6 IU/L, the TERMINAL_BW (6 h) was 214.7 g and the APTT (6 h) was 23.7 s. It also gave a Bas (6 h) of 0%, an Eos (6 h) of 1% and a Fbg (6 h) of 308.8 mg/dL. It also gave a Hb (6 h) of 13.5 g/dL, a Ht (6 h) of 39.4% and a Lym (6 h) of 74.4%. It also gave an MCH (6 h) of 21.6 pg, an MCHC (6 h) of 34.3% and an MCV (6 h) of 63 fL. For the same compound, the Mono (6 h) was 2.2%, the Neu (6 h) was 21.4% and the PT (6 h) was 16.1 s. The Plat (6 h) was 126.9 x10_4/uL, the RBC (6 h) was 624.6 x10_4/ul and the Ret (6 h) was 6.1%. It also gave a WBC (6 h) of 83.3 x10_2/uL, a KIDNEY_L (6 h) of 1 g and a KIDNEY_R (6 h) of 1 g. It also gave a KIDNEY_TOTAL (6 h) of 2 g, an LIVER (6 h) of 8.8 g and an A/G (6 h) of 1.2. For the same compound, the ALP (6 h) was 1286 IU/L, the ALT (6 h) was 34.2 IU/L and the AST (6 h) was 68.6 IU/L. For the same compound, the BUN (6 h) was 9.8 mg/dL, the CRE (6 h) was 0.2 mg/dL and the Ca (6 h) was 10.5 mg/dL. For the same compound, the Cl (6 h) was 105.8 meq/L, the DBIL (6 h) was 0 mg/dL and the GLC (6 h) was 183.4 mg/dL. For the same compound, the IP (6 h) was 9.9 mg/dL, the K (6 h) was 4.2 meq/L and the LDH (6 h) was 183.2 IU/L. For the same compound, the Na (6 h) was 142 meq/L, the PL (6 h) was 117.2 mg/dL and the RALB (6 h) was 2.9 g/dL. The TBIL (6 h) was 0.026 mg/dL, the TC (6 h) was 74.4 mg/dL and the TG (6 h) was 28.8 mg/dL. It also gave a TP (6 h) of 5.5 g/dL, a gamma-GTP (6 h) of 1.6 IU/L and a TERMINAL_BW (9 h) of 205.7 g. For the same compound, the APTT (9 h) was 23.8 s, the Bas (9 h) was 0% and the Eos (9 h) was 0.6%. For the same compound, the Fbg (9 h) was 343 mg/dL, the Hb (9 h) was 13.9 g/dL and the Ht (9 h) was 40%. It also gave a Lym (9 h) of 74.4%, an MCH (9 h) of 21 pg and an MCHC (9 h) of 34.7%. It also gave an MCV (9 h) of 60.5 fL, a Mono (9 h) of 3% and a Neu (9 h) of 21.2%. For the same compound, the PT (9 h) was 15.9 s, the Plat (9 h) was 121.7 x10_4/uL and the RBC (9 h) was 662.2 x10_4/ul. It also gave a Ret (9 h) of 5.5%, a WBC (9 h) of 69.4 x10_2/uL and a KIDNEY_L (9 h) of 1 g. It also gave a KIDNEY_R (9 h) of 1 g, a KIDNEY_TOTAL (9 h) of 2 g and an LIVER (9 h) of 8.4 g. The A/G (9 h) was 1.1, the ALP (9 h) was 1380.4 IU/L and the ALT (9 h) was 32.6 IU/L. It also gave an AST (9 h) of 63 IU/L, a BUN (9 h) of 12.2 mg/dL and a CRE (9 h) of 0.2 mg/dL. For the same compound, the Ca (9 h) was 10.6 mg/dL, the Cl (9 h) was 105.4 meq/L and the DBIL (9 h) was 0 mg/dL. For the same compound, the GLC (9 h) was 187 mg/dL, the IP (9 h) was 9.4 mg/dL and the K (9 h) was 3.7 meq/L. The LDH (9 h) was 170.6 IU/L, the Na (9 h) was 142.8 meq/L and the PL (9 h) was 139 mg/dL. It also gave an RALB (9 h) of 3 g/dL, a TBIL (9 h) of 0.018 mg/dL and a TC (9 h) of 80.2 mg/dL. The TG (9 h) was 66.2 mg/dL, the TP (9 h) was 5.8 g/dL and the gamma-GTP (9 h) was 1.2 IU/L. It also gave a TERMINAL_BW (24 h) of 213.8 g, an APTT (24 h) of 22.4 s and a Bas (24 h) of 0%. For the same compound, the Eos (24 h) was 0.8%, the Fbg (24 h) was 384.6 mg/dL and the Hb (24 h) was 13.9 g/dL. For the same compound, the Ht (24 h) was 40.7%, the Lym (24 h) was 80.8% and the MCH (24 h) was 21.1 pg. For the same compound, the MCHC (24 h) was 34%, the MCV (24 h) was 61.9 fL and the Mono (24 h) was 2.6%. It also gave a Neu (24 h) of 15%, a PT (24 h) of 16.4 s and a Plat (24 h) of 123.2 x10_4/uL. It also gave an RBC (24 h) of 659.2 x10_4/ul, a Ret (24 h) of 4.9% and a WBC (24 h) of 85.8 x10_2/uL. For the same compound, the KIDNEY_L (24 h) was 1 g, the KIDNEY_R (24 h) was 1 g and the KIDNEY_TOTAL (24 h) was 2 g. For the same compound, the LIVER (24 h) was 9.5 g, the A/G (24 h) was 1.1 and the ALP (24 h) was 1544 IU/L. The ALT (24 h) was 41.8 IU/L, the AST (24 h) was 69.8 IU/L and the BUN (24 h) was 25.6 mg/dL. The CRE (24 h) was 0.2 mg/dL, the Ca (24 h) was 11 mg/dL and the Cl (24 h) was 105.6 meq/L. The DBIL (24 h) was 0.002 mg/dL, the GLC (24 h) was 190.4 mg/dL and the IP (24 h) was 6.7 mg/dL. The K (24 h) was 4.2 meq/L, the LDH (24 h) was 200.8 IU/L and the Na (24 h) was 142.8 meq/L. The PL (24 h) was 152.2 mg/dL, the RALB (24 h) was 3 g/dL and the TBIL (24 h) was 0.012 mg/dL. The TC (24 h) was 89.6 mg/dL, the TG (24 h) was 89 mg/dL and the TP (24 h) was 5.7 g/dL. The gamma-GTP (24 h) was 2.2 IU/L.
